Laboratory results as given in patent US10294214B2, “Positive allosteric modulators of human melanocortin-4 receptor” (Vanderbilt University, priority 2016, dated 2019).
Entries after “also recorded” stand apart in the source; their conditions may differ.

What was measured:
[1] = molecular target: native L cell MC4R (Mus musculus (Mouse), UniProt P56450); test: Ussing chamber assay, α-MSH inhibition of VIP-elevated Isc in mouse colon mucosa; conditions: for α-MSH response (inhibition of Isc) after pretreatment / Effect of antagonist on α-MSH inhibition of Isc potentiated by 1 μM Example 3: α-MSH 300 nM; for Effect of compound alone on basal Isc: basolateral, Example 3 at 200 nM or 1 μM, vs vehicle; for Effect of antagonist on α-MSH inhibition of Isc potentiated by 1 μM Example 3: HS014 30 nM, 300 nM BIBO3304 plus 1 μM BIIE0246 in combination
Procedure: (§1) FIGS. 2A-2I contain data on the characterization of hMC4R PAMs Examples 1, 2, and 3. FIGS. 2A, 2B, and 2C show structures of Examples 1-3, and the affect of Examples 1-3 on the α-MSH dose-response curve at the hMC4R, as determined using the Lance assay. Insets show the concentration-response effect as a function of the fold shift on the α-MSH concentration response curve. […] After α-MSH responses had waned all tissues received PYY (10 nM) to verify residual Y receptor anti-secretory activity. Basal Isc values are indicated to the left of each trace from an exposed area of 0.14 cm^2. Vertical arrows show the timepoint at which α-MSH Isc responses were recorded. […] Each value is the mean±1 SEM with n values in parentheses. ** P<0.01 using one-way ANOVA with Dunnett's post-test.
(§2) GI tissue from adult (12-20 week old) male C57BL/6J mice were dissected free of overlying smooth muscle and mucosae placed between 2 halves of Ussing chambers exposing an area of 0.14 cm^2. Mucosae were bathed both sides with Krebs-Henseleit (KH) buffer of following composition (in mM: 117 NaCl, 24.8 NaHCO3, 4.7 KCl, 1.2 MgSO4, 1.2 KH2PO4, 2.5 CaCl2 and 11.1 D-glucose) aerated with 95% O2/5% CO2 (pH 7.4) and voltage-clamped at 0 mV as described in detail previously (Cox et al., 2001; Cox and Tough, 2002). MC4R activity in mouse colonic epithelium was then characterized. Mouse mucosae were pretreated with vehicle or PAM compounds, then with secretagogue, VIP (10 nM, basolateral), and once elevated ISC had reached its peak and was declining at a constant rate, α-MSH was added to the basolateral reservoir to determine responses.
(§3) ISC responses in μA are expressed as the mean±SEM per unit area (cm2). Single comparisons (using GraphPad Prism) were performed using Student's unpaired t-test while multiple comparisons utilized 1-way ANOVA with Dunnett's post test and P≤0.05 were considered statistically significant.

[2] = molecular target: hMC4R (Homo sapiens (Human), UniProt P32245); test: LANCE cAMP assay, hMC4R PAM; type: cell-based; conditions: for Emax: read-out: % of αMSH maximal response
Procedure: Analysis of pharmacological properties of compounds was performed using the LANCE cAMP kit (Perkin Elmer). HEK293 cells stably expressing the hMC4R were treated with PAM compounds at doses indicated, then incubated with an Alexa Fluor 647-labeled antibody in stimulation buffer according to manufacturer's instructions for 30 min at RT. Next, α-MSH was added (at an EC20 dose or at doses indicated for concentration-response curves), and plates were incubated for 15 minutes at RT, followed by the addition of 10 μL of detection mix. Plates were then incubated for 30 minutes at RT and read on a Viewlux (Perkin Elmer) using 618 and 671 nm emission filters. IBMX was not included in the assay.

[3] = tested on: Y receptor; test: Ussing chamber assay, PYY responses in mouse colon mucosa; conditions: PYY 10 nM; for Effect on PYY responses: Example 3 at 200 nM or 1 μM; for Effect of antagonist on PYY responses: HS014 30 nM, 300 nM BIBO3304 plus 1 μM BIIE0246 in combination
Procedure: as §1, §2, §3

[4] = tested on: C57BL/6 mice; test: Inhibition of fast-induced refeeding in the mouse; type: in vivo; conditions: single i.p. dose 5 mg/kg; overnight fasted mice; food intake after two and six hours
Procedure: FIG. 4 contains data from assays of inhibition of food intake in the mouse by MC4R PAM Example 3. Nine to ten week old C57BL/6 mice were fasted overnight (15 to 17 hours) and re-feeding was monitored the following day after a single i.p. dose of Example 3 (5 mg/kg) or vehicle (10% Tween 80, 5% DMSO v/v). Normalized food intake (food consumed in grams per 100 grams of body weight) per treatment group is shown in the top graphs after two hours (top left) and six hours (top right) of onset of re-feeding phase. Body weight changes for two and six hours are shown in the bottom left and right panels respectively. p values are noted on each graph and were determined by unpaired t tests. Significance was set to p values <0.05.

[5] = HEK293 cells stably expressing the hMC4R, α-MSH at an EC20 dose

Chain of native L cell MC4R (P56450 whole entry): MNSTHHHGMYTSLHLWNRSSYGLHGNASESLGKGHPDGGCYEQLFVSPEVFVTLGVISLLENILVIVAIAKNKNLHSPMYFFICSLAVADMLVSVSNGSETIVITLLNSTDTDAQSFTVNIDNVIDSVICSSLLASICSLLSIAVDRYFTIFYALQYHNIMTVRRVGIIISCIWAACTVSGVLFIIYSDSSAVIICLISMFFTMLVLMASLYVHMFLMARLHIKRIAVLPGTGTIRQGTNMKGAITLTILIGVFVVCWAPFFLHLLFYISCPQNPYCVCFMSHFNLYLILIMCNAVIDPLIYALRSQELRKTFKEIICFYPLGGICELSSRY
Chain of hMC4R (P32245 whole entry): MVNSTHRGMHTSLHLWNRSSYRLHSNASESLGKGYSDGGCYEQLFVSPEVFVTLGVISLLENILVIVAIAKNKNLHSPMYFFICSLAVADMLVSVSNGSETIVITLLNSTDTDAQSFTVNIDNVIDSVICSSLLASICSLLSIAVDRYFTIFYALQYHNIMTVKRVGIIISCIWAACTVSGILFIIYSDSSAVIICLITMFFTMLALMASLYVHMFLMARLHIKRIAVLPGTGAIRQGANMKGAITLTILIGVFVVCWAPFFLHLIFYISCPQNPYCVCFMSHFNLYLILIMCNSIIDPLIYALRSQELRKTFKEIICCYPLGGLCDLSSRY

| hMC4R PAM LANCE pEC50 Mean [2, 5] | SMILES | also measured |
| --- | --- | --- |
| 6.3 | O=C(CN1CCC2(CCCC2)CC1)Nc1c(C(=O)C2CC2)[nH]c2ccccc12 [Example 2, N-(2-(cyclopropanecarbonyl)-1H-indol-3-yl)-2-(8-azaspiro[4.5]decan-8-yl)acetamide] | α-MSH response (inhibition of Isc) after pretreatment ([1]; 3 μM pretreatment): potentiated significantly; Effect of compound alone on basal Isc [1]: not significantly different to vehicle controls; MC4R PAM activity on α-MSH induced, PYY mediated short circuit current inhibition ([1]; mouse colonic epithelium): exhibited MC4R PAM activity; pEC50 ([2]; in vitro characterisation): 6.3; Emax ([2]; in vitro characterisation): 80%; Effect on PYY responses [3]: unaffected |
| – | N=C(N)NCCC[C@H](NC(=O)CC1(CC(=O)N2CCN(C3c4ccccc4NC(=O)c4ccccc43)CC2)CCCC1)C(=O)NCCn1c(=O)n(-c2ccccc2)n(-c2ccccc2)c1=O (some centres unmarked) [BIIE0246, reference compound] | Effect of antagonist on α-MSH inhibition of Isc potentiated by 1 μM Example 3 [1]: abolished; Effect of antagonist on PYY responses [3]: predictably abolished |
| – | NC(=O)NCc1ccc(CNC(=O)[C@@H](CCCN=C(N)N)NC(=O)C(c2ccccc2)c2ccccc2)cc1 [BIBO3304, reference compound] | Effect of antagonist on α-MSH inhibition of Isc potentiated by 1 μM Example 3 [1]: abolished; Effect of antagonist on PYY responses [3]: predictably abolished |
| 6.7 | COC(=O)c1[nH]c2ccccc2c1NC(=O)CN1CCC(C2CCCCC2)CC1 [Example 3, methyl 3-(2-(4-cyclohexylpiperidin-1-yl)acetamido)-1H-indole-2-carboxylate] | α-MSH response (inhibition of Isc) after pretreatment ([1]; 1 μM pretreatment, vs vehicle controls): significantly increased; also recorded: significantly potentiated; Effect of compound alone on basal Isc [1]: no activity on its own; also recorded: not significantly different from vehicle; MC4R PAM activity on α-MSH induced, PYY mediated short circuit current inhibition ([1]; mouse colonic epithelium): nearly tripled the activity of α-MSH; EC50 ([1]; mouse colonic epithelium, read-out: EC50 for potentiation of α-MSH induced short circuit current inhibition): ~200 nM; pEC50 ([2]; in vitro characterisation): 6.7; Emax ([2]; in vitro characterisation): 102%; Effect on PYY responses [3]: did not modulate the activity of PYY; also recorded: unaffected; Anorexigenic activity, fast-induced refeeding [4]: small, but statistically significant anorexigenic activity |
| 6.2 | O=C(CN1CCN(c2ccccc2)CC1)Nc1c(C(=O)C2CC2)[nH]c2ccncc12 [Example 73] | – |
| 6.2 | COC(=O)c1[nH]c2ccc(Br)cc2c1NC(=O)CN1CCN(C(c2ccccc2)c2ccccc2)CC1 [Example 47] | – |
| 6.6 | COC(=O)c1[nH]c2ccc(N3CCOCC3)cc2c1NC(=O)CN1CCC(C2CCCCC2)CC1 [Example 61] | – |
| 6.5 | COC(=O)c1[nH]c2ccc(Br)cc2c1NC(=O)CN1CCN(c2cccc(C)c2C)CC1 [Example 5] | – |
| 6 | COC(=O)c1[nH]c2ccc(Cl)cc2c1NC(=O)CN1CCCC(C)(C)C1 [Example 80] | – |
| 6.5 | Cc1cccc(N2CCN(CC(=O)Nc3c(C(=O)C4CC4)[nH]c4ccccc34)CC2)c1C [Example 10] | – |
| 6.1 | CC(C)=C1CCN(CC(=O)Nc2c(C(=O)C3CC3)[nH]c3ccccc23)CC1 [Example 50] | – |
| 6.2 | CC(C)(C)C1CCN(CC(=O)Nc2c(C(=O)C3CC3)[nH]c3ccccc23)CC1 [Example 1, 2-(4-(tert-butyl)piperidin-1-yl)-N-(2-(cyclopropanecarbonyl)-1H-indol-3-yl)acetamide] | α-MSH response (inhibition of Isc) after pretreatment ([1]; 10 μM pretreatment): potentiated significantly; Effect of compound alone on basal Isc [1]: not significantly different to vehicle controls; MC4R PAM activity on α-MSH induced, PYY mediated short circuit current inhibition ([1]; mouse colonic epithelium): exhibited MC4R PAM activity; EC50 ([2]; in vitro characterisation): 398 nM; Emax ([2]; in vitro characterisation): 83%; Effect on PYY responses [3]: unaffected |
| 6.5 | CC(=O)c1[nH]c2ccccc2c1NC(=O)CN1CCC(C2CCCCC2)CC1 [Example 42] | – |
| 6.3 | COC(=O)c1[nH]c2ccc(Br)cc2c1NC(=O)CN1CCN(C2c3ccccc3-c3ccccc32)CC1 [Example 46] | hMC4R PAM LANCE Asym Max [2, 5]: 48 |
| 6 | CC(=O)c1[nH]c2ccc(Br)cc2c1NC(=O)CN1CCCC(C)(C)C1 [Example 51] | – |
| 6.7 | O=C(CN1CCC(C2CCCC2)CC1)Nc1c(C(=O)C2CC2)[nH]c2ccc(Cl)cc12 [Example 63] | – |
| 5.8 | COC(=O)c1[nH]c2ccc(Br)cc2c1NC(=O)CN1CCN(Cc2ccccc2)CC1 [Example 35] | – |
| 6.4 | O=C(CN1CCC(C2CCCC2)CC1)Nc1c(C(=O)C2CC2)[nH]c2ccccc12 [Example 41] | – |
| 6.2 | COC(=O)c1[nH]c2ccc(Cl)cc2c1NC(=O)CN1CCN(c2ccccc2)CC1 [Example 15] | – |
| 5.8 | CC(=O)c1[nH]c2ccccc2c1NC(=O)CN1CCC(OC2CCCCC2)CC1 [Example 77] | – |
| 5.9 | COC(=O)c1[nH]c2ccc(C)cc2c1NC(=O)CN1CCC(Cc2ccccc2)CC1 [Example 75] | – |
| 6.5 | COC(=O)c1[nH]c2ccc(Cl)cc2c1NC(=O)CN1CCC(c2ccccc2)CC1 [Example 4] | – |
| 6.1 | COC(=O)c1[nH]c2ccc(Br)cc2c1NC(=O)CN1CCCC(C)(C)C1 [Example 79] | – |
| 6.5 | O=C(CN1CCC(c2ccccc2)CC1)Nc1c(C(=O)C2CC2)[nH]c2ccc(Br)cc12 [Example 8] | – |
| 6.3 | O=C(CN1CCC(c2ccccc2)CC1)Nc1c(C(=O)C2CC2)[nH]c2ccc(N3CCOCC3)cc12 [Example 69] | – |
| 7.1 | CS(=O)(=O)c1ccc2[nH]c(C(=O)C3CC3)c(NC(=O)CN3CCC(C4CCCCC4)CC3)c2c1 [Example 58] | – |

| SMILES | hMC4R PAM LANCE pEC50 Mean [2, 5] | also measured |
| --- | --- | --- |
| COC(=O)c1[nH]c2ccccc2c1NC(=O)CN1CCC(N(C)c2ccccc2)CC1 [Example 45] | 6.3 | – |
